According to patent US12370182B2, “Bicyclic derivatives as GABAA A5 receptor modulators” (RICHTER GEDEON NYRT., priority 2018, dated 2025):

Assays:
[1] = biological target: T1, human recombinant GABAA α5β3γ2 receptor (Homo sapiens (Human), UniProt P18507+P31644); assay: Binding assay, [3H]Ro151788 displacement on membranes of HEK cells; details: 0.5 nM [3H]Ro151788, 60 minutes at 4° C., Cheng-Prusoff; read-out: hGABAA α5 Ki
In short: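 HEK-cell membranes with recombinant human α5β3γ2 incubated 60 min at 4 °C with 0.5 nM [3H]Ro151788 in 50 mM Tris pH 7.4, 100 mM KCl; nonspecific binding with 10 μM diazepam. Filtration, scintillation count; % inhibition of specific binding, IC50 from ≥6 concentrations in triplicate, Ki via Cheng-Prusoff.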

[2] = biological target: human recombinant GABAA α1β3γ2 receptor (Homo sapiens (Human), UniProt P14867+P18507); assay: Functional assay, QPatch automated patch clamp, GABA-evoked currents; type: cell-based; details: test compound 10 μM, 1 μM GABA, HEK293 cells, percentage modulation of peak current
Description: (§1) Human HEK293 cell lines expressing GABAA α1β3γ2 and GABAAα5β3γ2 receptors were used in functional assays using the QPatch automated patch clamp system.
(§2) HEK293 cell lines stably expressing human recombinant GABAA α1β3γ2 receptor subunits (Millipore, CYL3073) or human recombinant GABAA α5β3γ2 receptor subunits (Millipore, CYL3053) were cultured in DMEM supplemented with 10% FBS (Gibco), passed two times per week and plated on Petri dishes previously coated with poly-d-lysine.
(§3) Automated whole-cell patch clamp recordings were made from cells 2-4 days after plating. Cells were detached using trypsin/EDTA (Sigma) treatment (2 minutes in 0.25% trypsin at 37° C.), then, after centrifugation (125 G, 3 min, 2×), resuspended in a serum-free based media (Gibco, CHO—S-SFM-II) containing 12.5 mM HEPES, 1× penicillin-streptomycin-amphotericin (SigmaMix) and soybean trypsin inhibitor (Sigma, 0.04 mg/ml).
(§4) Cell suspension, as well as the extracellular solution (130 mM NaCl, 5 mM KCl, 5.1 mM HEPES, 4.9 mM HEPES-Na, 10 mM CaCl2), 2 mM MgCl2, 10 mM glucose and 0.1% DMSO, pH=7.35-7.4) and the intracellular solution (80 mM KCl, 50 mM KF, 36 mM KOH, 10 mM EGTA, 10 mM HEPES, 1.75 mM MgCl2, 0.5 mM CaCl2), 4 mM Na2ATP. 14 mM phosphocreatine, 50 U/ml creatine-phosphokinase, 0.3 mM GTP, pH=7.25-7.3) were added to the QPatch-HTX automated patch clamp system (Sophion) in single-cell mode at room temperature. […] At the end of the experiment 100 μM GABA was applied to saturate the GABA-response and to assess the efficacy of the control GABA application.
(§5) The percentage modulation was calculated from the comparison of GABA-evoked peak current amplitudes in the presence and absence of the test compound.

[3] = biological target: T1, human recombinant GABAA α5β3γ2 receptor; assay: as above; type: cell-based; details: test compound 10 μM, 1 μM GABA, HEK293 cells, percentage modulation of peak current
Description: as §1, §2, §3, §4, §5

T1 sequence (P31644 32-462): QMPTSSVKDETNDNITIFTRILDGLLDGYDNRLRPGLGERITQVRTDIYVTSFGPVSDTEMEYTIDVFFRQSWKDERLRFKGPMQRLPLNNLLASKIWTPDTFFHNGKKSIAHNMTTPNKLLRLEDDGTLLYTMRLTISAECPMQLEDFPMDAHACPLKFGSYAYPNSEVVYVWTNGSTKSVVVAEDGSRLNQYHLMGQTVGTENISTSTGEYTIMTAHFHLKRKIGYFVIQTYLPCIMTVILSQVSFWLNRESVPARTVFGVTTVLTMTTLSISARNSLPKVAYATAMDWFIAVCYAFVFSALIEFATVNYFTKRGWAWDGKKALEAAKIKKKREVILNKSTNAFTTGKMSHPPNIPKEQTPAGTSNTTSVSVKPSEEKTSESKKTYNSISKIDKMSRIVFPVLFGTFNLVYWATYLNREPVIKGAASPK
T1 sequence (P28472 26-473 partner): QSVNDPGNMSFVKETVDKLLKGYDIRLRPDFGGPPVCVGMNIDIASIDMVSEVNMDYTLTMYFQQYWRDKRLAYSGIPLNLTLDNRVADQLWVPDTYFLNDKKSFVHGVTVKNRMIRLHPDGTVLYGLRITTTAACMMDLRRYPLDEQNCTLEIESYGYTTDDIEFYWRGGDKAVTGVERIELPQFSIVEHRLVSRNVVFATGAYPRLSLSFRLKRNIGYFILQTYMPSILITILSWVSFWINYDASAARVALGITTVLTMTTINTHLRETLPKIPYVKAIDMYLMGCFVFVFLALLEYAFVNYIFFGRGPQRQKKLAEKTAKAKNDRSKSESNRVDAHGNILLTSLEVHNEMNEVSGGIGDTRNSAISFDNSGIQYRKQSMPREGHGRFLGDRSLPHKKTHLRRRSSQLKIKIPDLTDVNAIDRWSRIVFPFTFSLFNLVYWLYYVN
T1 sequence (P18507 40-475): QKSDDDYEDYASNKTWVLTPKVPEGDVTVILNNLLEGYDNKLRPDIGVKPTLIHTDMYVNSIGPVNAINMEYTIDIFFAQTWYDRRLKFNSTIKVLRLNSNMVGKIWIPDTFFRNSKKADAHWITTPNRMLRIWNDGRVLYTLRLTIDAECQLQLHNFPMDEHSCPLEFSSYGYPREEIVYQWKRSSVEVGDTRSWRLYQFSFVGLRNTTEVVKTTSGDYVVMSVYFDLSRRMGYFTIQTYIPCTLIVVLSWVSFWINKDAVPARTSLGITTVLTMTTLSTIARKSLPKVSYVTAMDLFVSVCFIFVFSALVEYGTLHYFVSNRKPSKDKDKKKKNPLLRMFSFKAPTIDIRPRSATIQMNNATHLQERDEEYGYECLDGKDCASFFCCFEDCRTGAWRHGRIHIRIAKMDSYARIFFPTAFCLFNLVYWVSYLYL
Chain of human recombinant GABAA α1β3γ2 receptor (P14867 28-456): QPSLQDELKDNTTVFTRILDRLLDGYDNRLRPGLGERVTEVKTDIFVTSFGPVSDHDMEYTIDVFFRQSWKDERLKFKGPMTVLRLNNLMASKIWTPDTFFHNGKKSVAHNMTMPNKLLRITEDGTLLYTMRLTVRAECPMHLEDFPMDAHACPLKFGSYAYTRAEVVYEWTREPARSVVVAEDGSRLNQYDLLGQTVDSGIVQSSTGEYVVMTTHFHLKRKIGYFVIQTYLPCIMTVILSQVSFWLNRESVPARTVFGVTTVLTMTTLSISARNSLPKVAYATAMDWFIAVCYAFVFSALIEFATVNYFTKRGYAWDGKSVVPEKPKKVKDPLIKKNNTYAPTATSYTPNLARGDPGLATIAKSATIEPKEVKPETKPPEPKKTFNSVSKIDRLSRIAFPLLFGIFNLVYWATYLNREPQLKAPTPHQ
Chain of human recombinant GABAA α1β3γ2 receptor (P28472 26-473 partner): as the sequence (P28472 26-473 partner) above
Chain of human recombinant GABAA α1β3γ2 receptor (P18507 40-475): as the sequence (P18507 40-475) above

SMILES: Cc1nnn(-c2ccc(F)cc2)c1COc1ccc2c(n1)CCN(C(=O)[C@@H]1CCOC1)C2 [Example 17, 2-{[1-(4-fluorophenyl)-4-methyl-1H-1,2,3-triazol-5-yl]methoxy}-6-[(3R)-oxolane-3-carbonyl]-5,6,7,8-tetrahydro-1,6-naphthyridine]
- Ki [1]: 69 nM
- hGABAA α1 efficacy [2]: −6%
- hGABAA α5 efficacy [3]: −37%

SMILES: CC(=O)N1Cc2ccc(OCc3c(C)nnn3-c3ccc(F)cc3)nc2C1 [Example 45, 1-(2-{[1-(4-fluorophenyl)-4-methyl-1H-1,2,3-triazol-5-yl]methoxy}-5H,6H,7H-pyrrolo[3,4-b]pyridin-6-yl)ethan-1-one]
- Ki [1]: 3.2 nM
- hGABAA α1 efficacy [2]: −7%
- hGABAA α5 efficacy [3]: −30%

SMILES: CC(=O)N1CCc2nc(OCc3c(C)nnn3-c3ccc(F)cc3)ccc2C1 [Example 14, 1-(2-{[1-(4-fluorophenyl)-4-methyl-1H-1,2,3-triazol-5-yl]methoxy}-5,6,7,8-tetrahydro-1,6-naphthyridin-6-yl)ethan-1-one]
- Ki [1]: 28 nM
- hGABAA α1 efficacy [2]: 0%
- hGABAA α5 efficacy [3]: −36%

SMILES: Cc1nnn(-c2ccc(F)cc2)c1COc1ccc2c(n1)CCN(C(=O)[C@H]1CCOC1)C2 [Example 18, 2-{[1-(4-fluorophenyl)-4-methyl-1H-1,2,3-triazol-5-yl]methoxy}-6-[(3S)-oxolane-3-carbonyl]-5,6,7,8-tetrahydro-1,6-naphthyridine]
- Ki [1]: 50 nM
- hGABAA α1 efficacy [2]: −5%
- hGABAA α5 efficacy [3]: −45%

SMILES: Cc1onc(-c2ccc(F)cc2)c1COc1ccc2c(n1)CCN(C(=O)C1CC(=O)N(C)C1)C2 (stereo not drawn) [Example 13, 4-(2-{[3-(4-fluorophenyl)-5-methyl-1,2-oxazol-4-yl]methoxy}-5,6,7,8-tetrahydro-1,6-naphthyridine-6-carbonyl)-1-methylpyrrolidin-2-one]
- Ki [1]: 4.3 nM
- hGABAA α1 efficacy [2]: −3%
- hGABAA α5 efficacy [3]: −34%

SMILES: Cc1nnn(-c2ccc(F)cc2)c1COc1ccc2c(n1)CCN(C(=O)C1CCS(=O)(=O)CC1)C2 [Example 23, 4-(2-{[1-(4-fluorophenyl)-4-methyl-1H-1,2,3-triazol-5-yl]methoxy}-5,6,7,8-tetrahydro-1,6-naphthyridine-6-carbonyl)-1lambda6-thiane-1,1-dione]
- Ki [1]: 45 nM
- hGABAA α1 efficacy [2]: −4%
- hGABAA α5 efficacy [3]: −47%

SMILES: Cc1onc(-c2ccc(F)cc2)c1COc1ccc2c(n1)CCN(C(=O)C1CCOCC1)C2 [Example 9, 2-{[3-(4-fluorophenyl)-5-methyl-1,2-oxazol-4-yl]methoxy}-6-(oxane-4-carbonyl)-5,6,7,8-tetrahydro-1,6-naphthyridine]
- Ki [1]: 6.2 nM
- hGABAA α1 efficacy [2]: −9%
- hGABAA α5 efficacy [3]: −37%

SMILES: Cc1onc(-c2ccc(F)cc2)c1COc1ccc2c(n1)CCN(C(=O)C1CCOC1)C2 (stereo not drawn) [Example 2, 2-{[3-(4-fluorophenyl)-5-methyl-1,2-oxazol-4-yl]methoxy}-6-(oxolane-3-carbonyl)-5,6,7,8-tetrahydro-1,6-naphthyridine]
- Ki [1]: 7 nM
- hGABAA α1 efficacy [2]: −14%
- hGABAA α5 efficacy [3]: −40%

SMILES: Cc1nnn(-c2ccc(F)cc2)c1COc1ccc2c(n1)CCN(C(=O)NC1CC(=O)N(C)C1)C2 (stereo not drawn) [Example 75, 2-{[1-(4-fluorophenyl)-4-methyl-1H-1,2,3-triazol-5-yl]methoxy}-N-(1-methyl-5-oxopyrrolidin-3-yl)-5,6,7,8-tetrahydro-1,6-naphthyridine-6-carboxamide]
- Ki [1]: 38 nM
- hGABAA α1 efficacy [2]: −3%
- hGABAA α5 efficacy [3]: −35%

SMILES: Cc1nnn(-c2ccc(F)cc2)c1COc1ccc2c(n1)CCN(C(=O)C1CCOCC1)C2 [Example 28, 2-{[1-(4-fluorophenyl)-4-methyl-1H-1,2,3-triazol-5-yl]methoxy}-6-(oxane-4-carbonyl)-5,6,7,8-tetrahydro-1,6-naphthyridine]
- Ki [1]: 43 nM
- hGABAA α1 efficacy [2]: −6%
- hGABAA α5 efficacy [3]: −40%
